Measured values taken from patent US10196436B2, “Inhibitors of the fibroblast growth factor receptor” (BLUEPRINT MEDICINES CORPORATION, priority 2012, dated 2019).

Columns and labels:
wild type FGFR-1 = wild type FGFR-1 (Homo sapiens (Human), UniProt P11362); test: FGFR-1 wild type assay at Km (Caliper electrophoretic mobility shift); type: biochemical; conditions: 400 uM ATP, 90 minutes, 25 C; read-out: FGFR1 IC50
Method: (§1) In order to assess the activity of chemical compounds against the relevant kinase of interest, the Caliper LifeSciences electrophoretic mobility shift technology platform is utilized. Fluorescently labeled substrate peptide is incubated in the presence dosed levels of compounds, a set concentration of kinase and of ATP, so that a reflective proportion of the peptide is phosphorylated. At the end of the reaction, the mix of phosphorylated (product) and non-phosphorylated (substrate) peptides are passed through the microfluidic system of the Caliper LabChip® EZ Reader II, under an applied potential difference. The presence of the phosphate group on the product peptide provides a difference in mass and charge between the product peptide and the substrate peptide, resulting in a separation of the substrate and product pools in the sample. As the pools pass the LEDS within the instrument, these pools are detected and resolved as separate peaks. The ratio between these peaks therefore reflects the activity of the chemical matter at that concentration in that well, under those conditions.
(§2) The reaction was stopped by the addition of 70 ul of Stop buffer (100 mM HEPES pH 7.5, 0.015% Brij 35, 35 mM EDTA and 0.2% of Coating Reagent 3 (Caliper Lifesciences)). The plate was then read on a Caliper EZReader 2 (protocol settings: −1.9 psi, upstream voltage −700, downstream voltage −3000, post sample sip 35 s).

wild type FGFR-4 = wild type FGFR-4 (Homo sapiens (Human), UniProt P22455); test: FGFR-4 wild type assay at Km (Caliper electrophoretic mobility shift); type: biochemical; conditions: for IC50: 400 uM ATP, 90 minutes, 25 C, read-out: FGFR4 IC50; for Ratio FGFR1/FGFR4: [IC50 for FGFR1]/[IC50 for FGFR4]
Method: as §1
as §2, with “LabChip® EZ Reader II” for “EZReader 2”

[1] = test system: MDA-MB-453 cells, which harbor an activating FGFR4 mutation; test: Cellular potency: phosphorylation of Erk in MDA-MB-453 cells (immunoblot); conditions: Homo sapiens, MDA-MB-453, 1 h, read-out: Potency (pErk IC50)
Method: Dose response in MDA-MB-453 cells, which harbor an activating FGFR4 mutation, was measured as follows. Briefly, MDA-MB-453 cells were seeded at 2.5×10^6 cells/6 well, and starved overnight. Compounds were added at varying concentrations (3000, 1000, 300, 100, and 30 nM) for 1 hour. Samples were collected and lysed for immunoblot analysis. The phosphorylation of Erk was measured and the average pErk value of three replicates was plotted with three parameter dose-response (inhibition) curve fit using Prism GraphPad software, which was used to determine the IC50 values.

Sequence of wild type FGFR-1 (P11362 22-822): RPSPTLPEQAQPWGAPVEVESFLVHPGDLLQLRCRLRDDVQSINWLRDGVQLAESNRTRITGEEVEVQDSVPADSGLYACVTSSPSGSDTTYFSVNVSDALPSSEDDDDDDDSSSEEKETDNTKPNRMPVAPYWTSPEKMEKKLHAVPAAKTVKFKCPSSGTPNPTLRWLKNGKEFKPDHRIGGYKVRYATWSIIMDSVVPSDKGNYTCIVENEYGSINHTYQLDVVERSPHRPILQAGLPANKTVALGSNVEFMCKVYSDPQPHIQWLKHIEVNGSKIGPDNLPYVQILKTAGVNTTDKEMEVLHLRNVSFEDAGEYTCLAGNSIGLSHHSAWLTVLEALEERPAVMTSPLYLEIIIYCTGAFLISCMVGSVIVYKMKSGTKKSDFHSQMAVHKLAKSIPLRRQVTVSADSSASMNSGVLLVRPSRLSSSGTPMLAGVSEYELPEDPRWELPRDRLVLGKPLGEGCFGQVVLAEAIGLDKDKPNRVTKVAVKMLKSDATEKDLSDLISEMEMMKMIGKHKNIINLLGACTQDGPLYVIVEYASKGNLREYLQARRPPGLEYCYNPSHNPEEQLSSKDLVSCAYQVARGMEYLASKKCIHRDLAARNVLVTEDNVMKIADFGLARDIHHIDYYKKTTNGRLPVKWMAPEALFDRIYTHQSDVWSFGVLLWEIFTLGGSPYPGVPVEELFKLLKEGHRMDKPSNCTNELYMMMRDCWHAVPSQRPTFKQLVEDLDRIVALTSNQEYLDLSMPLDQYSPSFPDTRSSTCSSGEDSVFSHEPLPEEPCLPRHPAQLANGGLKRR
Sequence of wild type FGFR-4 (P22455 22-802): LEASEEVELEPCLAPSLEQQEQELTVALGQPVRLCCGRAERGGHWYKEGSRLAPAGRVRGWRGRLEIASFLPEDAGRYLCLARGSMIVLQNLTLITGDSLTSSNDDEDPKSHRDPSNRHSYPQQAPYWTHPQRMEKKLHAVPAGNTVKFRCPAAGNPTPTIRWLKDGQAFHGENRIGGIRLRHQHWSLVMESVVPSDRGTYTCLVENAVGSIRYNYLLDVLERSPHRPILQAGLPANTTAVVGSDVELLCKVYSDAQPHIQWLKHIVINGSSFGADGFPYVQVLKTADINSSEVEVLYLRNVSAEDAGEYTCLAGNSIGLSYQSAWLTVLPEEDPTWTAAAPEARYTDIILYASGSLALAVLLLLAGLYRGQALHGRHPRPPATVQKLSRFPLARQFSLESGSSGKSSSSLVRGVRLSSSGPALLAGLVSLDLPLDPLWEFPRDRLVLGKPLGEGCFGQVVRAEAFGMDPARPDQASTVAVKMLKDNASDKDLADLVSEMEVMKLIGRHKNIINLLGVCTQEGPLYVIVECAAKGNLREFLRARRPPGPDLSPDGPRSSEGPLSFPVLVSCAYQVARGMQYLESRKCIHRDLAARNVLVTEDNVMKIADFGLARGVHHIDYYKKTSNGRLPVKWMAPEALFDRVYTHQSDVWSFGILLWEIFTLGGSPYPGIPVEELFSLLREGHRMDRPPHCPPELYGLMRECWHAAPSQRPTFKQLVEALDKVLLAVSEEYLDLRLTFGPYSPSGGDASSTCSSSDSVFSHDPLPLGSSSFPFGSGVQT

| SMILES | IC50 (wild type FGFR-1) | IC50 (wild type FGFR-4) | Ratio FGFR1/FGFR4 (wild type FGFR-4) | IC50 [1] |
| --- | --- | --- | --- | --- |
| C=CC(=O)Nc1ccccc1Nc1ncc(Cl)c(N2CCN(C(=O)Nc3cccc(C(F)(F)F)c3)CC2)n1 [COMPOUND 50, 4-(2-((2-acrylamidophenyl)amino)-5-chloropyrimidin-4-yl)-N-(3-(trifluoromethyl)phenyl)piperazine-1-carboxamide] | > 1 µM |  |  |  |
| C=CC(=O)Nc1ccccc1Nc1ncc2cc(-c3cc(OC)cc(OC)c3)c(=O)n(C)c2n1 [COMPOUND 16] | > 1 µM |  |  |  |
| C=CC(=O)N(C)c1ncc2cc(-c3c(Cl)c(OC)cc(OC)c3Cl)c(=O)n(C)c2n1 [COMPOUND 12] |  | < 0.01 µM | D (the ratio is ≥50 and <100) |  |
| C=CC(=O)Nc1cccc(C)c1Nc1ncc2cc(-c3c(Cl)cccc3Cl)c(=O)n(C)c2n1 [COMPOUND 22] | > 1 µM |  | B (the ratio is ≥200 and <500) |  |
| C=CC(=O)Nc1ccccc1-c1ccn2c(-c3cc(NC(=O)NCC(F)(F)F)cc(OC(C)C)c3)cnc2c1 [COMPOUND 38, N-(2-(3-(3-isopropoxy-5-(3-(2,2,2-trifluoroethyl)ureido)phenyl)imidazo[1,2-a]pyridin-7-yl)phenyl)acrylamide] |  |  | E (the ratio is >10 and <50) | 0.01 to 0.1 µM |
| C=CC(=O)Nc1cc(Cl)cc(C)c1Nc1ncc2cc(-c3c(Cl)c(OC)cc(OC)c3Cl)ccc2n1 [COMPOUND 49] | > 1 µM |  | A (the ratio is >500) |  |
| C=CC(=O)Nc1ccccc1Nc1ncc(C)c(N2CCN(C(=O)Nc3ccc(C#N)cc3)CC2)n1 [COMPOUND 23] | > 1 µM | 0.1 to 1 µM | A (the ratio is >500) |  |
| C=CC(=O)Nc1cc(C(=O)NC2CCN(C)CC2)ccc1Nc1ncc(C)c(N2CCN(C(=O)Nc3ccc(C#N)cc3)CC2)n1 [COMPOUND 54, 4-(2-((2-acrylamido-4-((1-methylpiperidin-4-yl)carbamoyl)phenyl)amino)-5-methylpyrimidin-4-yl)-N-(4-cyanophenyl)piperazine-1-carboxamide] | > 1 µM |  |  |  |
| C=CC(=O)Nc1cccc(C)c1Oc1ncc2cc(-c3c(Cl)c(OC)cc(OC)c3Cl)ccc2n1 [COMPOUND 25A] | > 1 µM |  | D (the ratio is ≥50 and <100) |  |
| C=CC(=O)Nc1cccc(C)c1Nc1ncc2cc(-c3c(Cl)c(OC)cc(OC)c3Cl)c(OC)cc2n1 [COMPOUND 42, N-(2-((6-(2,6-dichloro-3,5-dimethoxyphenyl)-7-methoxyquinazolin-2-yl)amino)-3-methylphenyl)acrylamide] |  | < 0.01 µM | F (the ratio of [IC50 for FGFR1]/[IC50 for FGFR4] is less than 10) |  |
| C=CC(=O)N(C)c1ncc2c(n1)N(C)C(=O)N(c1c(Cl)c(OC)cc(OC)c1Cl)C2 [COMPOUND 14] |  |  | F (the ratio of [IC50 for FGFR1]/[IC50 for FGFR4] is less than 10) |  |
| C=CC(=O)Nc1cccc(C)c1Nc1ncc2cc(-c3c(Cl)c(OC)cc(OC)c3Cl)c(=O)n(C)c2n1 [COMPOUND 43, N-(2-((6-(2,6-dichloro-3,5-dimethoxyphenyl)-8-methyl-7-oxo-7,8-dihydropyrido[2,3-d]pyrimidin-2-yl)amino)-3-methylphenyl)acrylamide] |  |  |  | < 0.001 µM |
| C=CC(=O)N(C)c1ncc2c(n1)N(C)C(=O)N(c1cc(OC)cc(OC)c1)C2 [COMPOUND 5] | > 1 µM |  | A (the ratio is >500) |  |
| C=CC(=O)N(C)c1ncc2cc(-c3cc(OC)cc(OC)c3)ccc2n1 [COMPOUND 1] | > 1 µM | 0.1 to 1 µM | C (the ratio is ≥100 and <200) |  |
| C=CC(=O)Nc1cccc(F)c1Nc1ncc2cc(-c3c(Cl)c(OC)cc(OC)c3Cl)cc(OC)c2n1 [COMPOUND 47] |  | < 0.01 µM | B (the ratio is ≥200 and <500) |  |
| C=CC(=O)Nc1cccc(C)c1Nc1ncc(C#Cc2c(Cl)c(OC)cc(OC)c2Cl)cn1 [COMPOUND 24, N-(2-((5-((2,6-dichloro-3,5-dimethoxyphenyl)ethynyl)pyrimidin-2-yl)amino)-3-methylphenyl)acrylamide] | > 1 µM |  |  |  |
| C=CC(=O)Nc1cc(C)cc(C)c1Nc1ncc2cc(-c3c(Cl)c(OC)cc(OC)c3Cl)ccc2n1 [COMPOUND 28] | > 1 µM |  |  |  |
| C=CC(=O)Nc1cccc(C)c1Nc1ncc2cc(-c3cc(OC)cc(OC)c3)cnc2n1 [COMPOUND 10, N-(2-((6-(3,5-dimethoxyphenyl)pyrido[2,3-d]pyrimidin-2-yl)amino)-3-methylphenyl)acrylamide] | > 1 µM | > 1 µM | E (the ratio is >10 and <50) |  |
| C=CC(=O)N(C)c1ncc2cc(-c3c(Cl)c(OC)cc(OC)c3Cl)ccc2n1 [COMPOUND 7] | > 1 µM | < 0.01 µM | A (the ratio is >500) |  |

| SMILES | IC50 (wild type FGFR-1) | IC50 (wild type FGFR-4) | Ratio FGFR1/FGFR4 (wild type FGFR-4) | IC50 [1] |
| --- | --- | --- | --- | --- |
| C=CC(=O)Nc1cc(F)cc(F)c1Nc1ncc2cc(-c3c(Cl)c(OC)cc(OC)c3Cl)ccc2n1 [COMPOUND 36] | > 1 µM |  | B (the ratio is ≥200 and <500) |  |
| C=CC(=O)Nc1cccc(F)c1Nc1ncc2cc(-c3c(Cl)c(OC)cc(OC)c3Cl)ccc2n1 [COMPOUND 51] | > 1 µM | 0.01 to 0.1 µM | F (the ratio of [IC50 for FGFR1]/[IC50 for FGFR4] is less than 10) |  |
| C=CC(=O)N(C)c1ncc2cc(-c3c(Cl)cccc3Cl)ccc2n1 [COMPOUND 2] | > 1 µM |  | D (the ratio is ≥50 and <100) |  |
| C=CC(=O)Nc1ccccc1Nc1cc2nc(NC(=O)NC(C)(C)C)c(-c3cc(OC)cc(OC)c3)cc2cn1 [COMPOUND 44] | > 1 µM |  | E (the ratio is >10 and <50) |  |
| C=CC(=O)Nc1cccc(C)c1Nc1ncc2cc(-c3cc(C(N)=O)ccc3F)ccc2n1 [COMPOUND 9] | > 1 µM |  | D (the ratio is ≥50 and <100) |  |
| C=CC(=O)Nc1cccc(C)c1Nc1ncc2c(n1)N(C)C(=O)N(c1c(Cl)c(OC)cc(OC)c1Cl)C2 [COMPOUND 48, N-(2-((6-(2,6-dichloro-3,5-dimethoxyphenyl)-8-methyl-7-oxo-5,6,7,8-tetrahydropyrimido[4,5-d]pyrimidin-2-yl)amino)-3-methylphenyl)acrylamide] |  | < 0.01 µM | E (the ratio is >10 and <50) |  |
| C=CC(=O)Nc1cccc(C)c1Nc1ncc2cc(-c3c(Cl)ccc(OC)c3F)ccc2n1 [COMPOUND 17A] | > 1 µM |  | E (the ratio is >10 and <50) |  |
| C=CC(=O)Nc1cccc(Cl)c1Nc1ncc2cc(-c3cc(C(N)=O)ccc3C)ccc2n1 [COMPOUND 17] | > 1 µM |  | B (the ratio is ≥200 and <500) |  |
| C=CC(=O)Nc1ccccc1Nc1cc2c(cn1)cc(-c1cc(OC)cc(OC)c1)c(=O)n2C [COMPOUND 15] | > 1 µM |  | B (the ratio is ≥200 and <500) |  |
| C=CC(=O)N(C)c1ncc2cc(-c3c(Cl)c(OC)cc(OC)c3Cl)cnc2n1 [COMPOUND 8] |  | < 0.01 µM | E (the ratio is >10 and <50) |  |
| C=CC(=O)Nc1cccc(C)c1Nc1ncc2cc(-c3c(Cl)cccc3Cl)ccc2n1 [COMPOUND 13] | > 1 µM |  | D (the ratio is ≥50 and <100) |  |
| C=CS(=O)(=O)Nc1cccc(C)c1Nc1ncc2cc(-c3c(Cl)c(OC)cc(OC)c3Cl)ccc2n1 [COMPOUND 49A] |  |  | E (the ratio is >10 and <50) |  |
| C=CC(=O)Nc1ccc(F)c(F)c1Nc1ncc2cc(-c3c(Cl)c(OC)cc(OC)c3Cl)ccc2n1 [COMPOUND 37] |  | < 0.01 µM | C (the ratio is ≥100 and <200) |  |
| C=CC(=O)Nc1cccc(C)c1Nc1ncc2cc(-c3cc(OC)cc(OC)c3)c(=O)n(C)c2n1 [COMPOUND 19] | > 1 µM |  |  |  |
| C=CC(=O)Nc1ccccc1Nc1nccc(N2CCCC(NS(=O)(=O)CCC)C2)n1 (stereo not drawn) [COMPOUND 11, N-(2-((4-(3-(propylsulfonamido)piperidin-1-yl)pyrimidin-2-yl)amino)phenyl)acrylamide] | > 1 µM |  |  |  |
| C=CC(=O)Nc1cccc(C)c1Nc1ncc(C#Cc2cc(OC)cc(OC)c2)cn1 [COMPOUND 6, N-(2-((5-((3,5-dimethoxyphenyl)ethynyl)pyrimidin-2-yl)amino)-3-methylphenyl) acrylamide] | > 1 µM |  |  |  |
| C=CC(=O)Nc1ccccc1-c1ccn2c(-c3cccc(NC(=O)NCC(F)(F)F)c3)cnc2c1 [COMPOUND 21, N-(2-(3-(3-(3-(2,2,2-trifluoroethyl)ureido)phenyl)imidazo[1,2-a]pyridin-7-yl)phenyl)acrylamide] | > 1 µM |  |  |  |
| C=CC(=O)Nc1ccccc1Nc1ncc2cc(-c3c(Cl)c(OC)cc(OC)c3Cl)c(=O)n(C)c2c1C [COMPOUND 40, N-(2-((3-(2,6-dichloro-3,5-dimethoxyphenyl)-1,8-dimethyl-2-oxo-1,2-dihydro-1,6-naphthyridin-7-yl)amino)phenyl)acrylamide] | > 1 µM |  |  |  |
| C=CC(=O)Nc1cc(F)cc(C)c1Nc1ncc2cc(-c3c(Cl)c(OC)cc(OC)c3Cl)ccc2n1 [COMPOUND 32] | > 1 µM | < 0.01 µM | C (the ratio is ≥100 and <200) |  |
